This experiment addresses T1, mutant EGFR (L858R) (Homo sapiens, UniProt P00533, L858R/T790M).
T1 construct: endogenous in cells; host or cells: NCI-H1975
As to the kind of experiment: Assay 8 - Degradation of mutant EGFR by immunoblot (NCI-H1975 cells). The format is cell-based. The settings on record: after 24 h treatment with 1000 nM. The protocol: 1.8 Assay 8—Degradation of Mutant EGFR by Immunoblot.
NCI-H1975 (1.5×10^5) cells were seeded in 12-well plates (1 mL medium) overnight prior to 24 h treatment with test compounds at the desired concentration (DMSO final concentration 0.1%). After 24 h incubation, cells were washed with PBS and lysed with RIPA buffer (Sigma) supplemented with 1× protease inhibitor cocktail (Roche) and 1 U/mL Benzonase (Merck). Lysates were clarified by centrifugation (17,000×g, 20 min, 4° C.) and the total protein content of the supernatant was quantified using a BCA assay. Samples were prepared using equal amounts of total protein and LDS sample buffer (Invitrogen). […] Blots were visualised using a Bio-Rad ChemiDoc MP Imaging System, and band quantification was performed using Image Studio software (LiCor). […] Degradation data was plotted and analysed using Prism (Graphpad, version 8).
The degradation of target protein mutant EGFR (L858R) was detected according to the procedure outlined in assay 8 for the compound A67.

Here are results for one molecule from patent US20240115711A1, “Novel Bifunctional Molecules For Targeted Protein Degradation” (Amphista Therapeutics Limited, priority 2020, published 2024).

Structures are written as SMILES.

T1 sequence (P00533 25-1210 T790M/L858R): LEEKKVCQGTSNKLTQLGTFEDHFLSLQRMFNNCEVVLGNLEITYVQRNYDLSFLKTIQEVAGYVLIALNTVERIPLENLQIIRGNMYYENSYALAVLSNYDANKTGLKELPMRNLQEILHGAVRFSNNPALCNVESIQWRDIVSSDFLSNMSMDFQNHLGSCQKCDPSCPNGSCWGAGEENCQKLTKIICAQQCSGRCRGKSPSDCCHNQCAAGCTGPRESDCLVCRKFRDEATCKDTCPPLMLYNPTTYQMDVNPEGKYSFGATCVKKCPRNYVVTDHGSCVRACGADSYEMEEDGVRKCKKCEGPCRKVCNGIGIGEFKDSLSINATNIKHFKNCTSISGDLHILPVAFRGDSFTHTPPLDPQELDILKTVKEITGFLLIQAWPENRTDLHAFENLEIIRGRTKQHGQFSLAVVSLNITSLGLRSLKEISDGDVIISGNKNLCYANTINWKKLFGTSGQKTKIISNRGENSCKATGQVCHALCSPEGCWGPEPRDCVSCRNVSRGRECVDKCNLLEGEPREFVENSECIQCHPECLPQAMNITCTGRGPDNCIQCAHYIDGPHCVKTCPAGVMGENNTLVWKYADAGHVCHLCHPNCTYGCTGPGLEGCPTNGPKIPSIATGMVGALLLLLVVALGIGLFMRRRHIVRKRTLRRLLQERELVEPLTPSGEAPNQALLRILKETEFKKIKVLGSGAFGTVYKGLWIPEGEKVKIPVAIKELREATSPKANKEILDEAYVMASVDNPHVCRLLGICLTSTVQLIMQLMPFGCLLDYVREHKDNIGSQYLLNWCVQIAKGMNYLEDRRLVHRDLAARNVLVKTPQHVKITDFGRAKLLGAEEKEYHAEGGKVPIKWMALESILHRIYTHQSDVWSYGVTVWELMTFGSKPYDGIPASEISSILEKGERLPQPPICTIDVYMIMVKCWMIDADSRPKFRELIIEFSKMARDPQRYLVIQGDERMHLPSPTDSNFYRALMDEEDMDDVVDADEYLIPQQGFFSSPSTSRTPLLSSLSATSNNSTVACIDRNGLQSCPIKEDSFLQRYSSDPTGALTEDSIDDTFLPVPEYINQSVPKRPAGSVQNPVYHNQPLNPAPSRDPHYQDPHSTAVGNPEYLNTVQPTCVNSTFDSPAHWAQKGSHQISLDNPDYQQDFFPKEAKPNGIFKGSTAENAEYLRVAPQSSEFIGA

Consider `CCCC(c1ccc(CCC(=O)NCCCN2CCN(CCCNC(=O)c3nn(C(C)C)c4cc(Nc5ccnc(N6CCC(OC)CC6)n5)ncc34)CC2)cc1)N(C)C(=O)/C(C#N)=C/c1nccs1` (stereo not shown) [Example A67, (E)-N-(3-(4-(3-(3-(4-(1-(2-cyano-N-methyl-3-(thiazol-2-yl)acrylamido)butyl)phenyl)propanamido)propyl)piperazin-1-yl)propyl)-1-isopropyl-6-((2-(4-methoxypiperidin-1-yl)pyrimidin-4-yl)amino)-1H-pyrazolo[4,3-c]pyridine-3-carboxamide], for which the “residual EGFR (L858R) abundance” value is on record as “less than 50%”.
